Assay results from patent US8304427B2, “Acylthiourea compound or salt thereof, and use thereof” (Taiho Pharmaceutical Co., Ltd., priority 2008, dated 2012).
Read-outs that look alike come from different tables or passages of the source.

Legend:
NUGC4 cells = assay: Cell-proliferation inhibitory assay against NUGC4 cells (Crystal Violet); type: cell-based; conditions: Homo sapiens, NUGC-4, 72 h; NUGC4, cancer, c-Met status (+), 3 days
Protocol: Cell-Proliferation Inhibitory Assay Against NUGC4 Cells (Human Gastric Cancer Cell Strain in Which c-Met is Over-Expressed and Highly Activated), In Vitro Test
NUGC4 cell suspension (in a 10% FBS-containing RPMI 1640 medium (product of Wako Pure Chemical Industries Ltd.) or a FBS-containing DMEM medium (product of Nacalai Tesque, Inc.)) was inoculated to each well of a 96-well (flat-bottom) microplate in an amount of 2×10^3 cells (0.1 mL), and the plate was incubated in an incubator under 5% CO2 gas atmosphere at 37° C. for one day. Each of the compounds of the present invention and comparative compound 1 was dissolved in dimethyl sulfoxide to a concentration of 30 mM. The solution was diluted with 10% FBS-containing RPMI 1640 or DMEM medium, to a final test compound concentration of 60, 20, 6, 2, 0.6, or 0.2 μM. The thus-prepared test compound solution was added to each well of the NUGC4 cell culture plate at 0.1 mL/well, and the plate was incubated in an incubator under 5% CO2 gas atmosphere at 37° C. for 3 days. After culturing, 25% aqueous glutaraldehyde solution (product of Nacalai Tesque, Inc.) was added to each well at 20 μL, and the plate was left to stand at room temperature for 20 minutes, whereby cells were fixed. Thereafter, the plate was washed with tap water and dried. Then, aqueous 0.05% Crystal Violet/20% methanol solution (product of Wako Pure Chemical Industries Ltd.) was added to each well at 100 μL/well, and the plate was left to stand at room temperature for 20 minutes, whereby cells were stained. Thereafter, the plate was washed with tap water and dried. To each well, 0.05 M NaH2PO4/ethanol (1/1=v/v) (100 μL) was added, to thereby extract Crystal Violet. The absorbance of the extracted Crystal Violet was measured at 540 nm using a microplate reader, and the absorbance was employed as an index for living cell count. Percent inhibition was calculated by the following equation, and the 50% inhibition test compound concentration (IC50 (μM)) was calculated. Percent inhibition (%)=(C−T)/C×100 • T: Absorbance of well to which a test compound was added • C: Absorbance of well to which no test compound was added

HCT-116 = assay: Cell proliferation inhibition test against c-Met low expressing tumor cells (HCT-116); type: cell-based; conditions: Homo sapiens
[1] = system: HAOSMC (human aortic smooth muscle cell); assay: Cell proliferation inhibition test against normal cells HAOSMC; type: cell-based; conditions: Homo sapiens, 72 h, read-out: IC50 HAOSMC
Protocol: [Worded in the source for another cell line; this cell line is reported under the same test.] (§1) The thus-prepared test compound solution was added to each well of the NUGC4 cell culture plate at 0.1 mL/well, and the plate was incubated in an incubator under 5% CO2 gas atmosphere at 37° C. for 3 days. […] Thereafter, the plate was washed with tap water and dried. Then, aqueous 0.05% Crystal Violet/20% methanol solution (product of Wako Pure Chemical Industries Ltd.) was added to each well at 100 μL/well, and the plate was left to stand at room temperature for 20 minutes, whereby cells were stained. Thereafter, the plate was washed with tap water and dried. To each well, 0.05 M NaH2PO4/ethanol (1/1=v/v) (100 μL) was added, to thereby extract Crystal Violet. The absorbance of the extracted Crystal Violet was measured at 540 nm using a microplate reader, and the absorbance was employed as an index for living cell count. […] Percent inhibition (%)=(C−T)/C×100 • T: Absorbance of well to which a test compound was added • C: Absorbance of well to which no test compound was added

[2] = system: HMEC (human skin microvascular endothelial cell); assay: Cell proliferation inhibition test against normal cells HMEC; type: cell-based; conditions: Homo sapiens, HMEC, 72 h, read-out: IC50 HMEC
Protocol: [Worded in the source for another cell line; this cell line is reported under the same test.] as §1

[3] = Dose determination study (body weight change, maximum tolerated dose); type: in vivo; conditions: nude mice, peroral
Protocol: […]. The maximum tolerated dose was calculated based on the change in body weight of the mice.
During the administration period, percent body weight change of mice (BWC %) was calculated. […] Thus, the half value of the toxicity expression dose was decided as a maximum tolerated dose.
BWC of mice was calculated by the following equation, and the change in mean BWC of each group during the administration period is shown in FIG. 1. BWC(%)=([(body weight of mouse on the day of weight measurement)−(body weight of mouse at grouping)]/(body weight of mouse at grouping))×100

COc1cc2nccc(Oc3ccc(NC(=S)NC(=O)Cc4ccccc4)cc3F)c2cc1OC [Comp. Ex. 1, reference compound]
IC50 (NUGC4 cells): 0.2 µM | IC50 (HCT-116; HCT-116, 72 h, read-out: IC50 HCT-116): 17 µM | IC50 (HCT-116; HCT-116, read-out: IC50 to c-Met low expressing and normal cell strains): 15 to 24 µM | IC50 [1]: 24 µM | IC50 [2]: 15 µM | MTD at 14 days ([3]; mouse, in vivo, oral, half value of the toxicity expression dose): 100 mg/kg | toxicity expression dose ([3]; 14 days, dose with ≧10% reduction in mean BWC): 200 mg/kg | body weight change ([3]; once a day, 14 days, 100 mg/kg): no decrease in body weight was observed | decrease in BWC ([3]; once a day, 14 days, 200 mg/kg): > 10%
